{"source": "patent US20260076975A1", "about": "“TPK AGONIST AND METHOD FOR USING SAME TO TREAT NEURODEGENERATIVE DISEASES” (SHANGHAI RAISING PHARMACEUTICAL CO., LTD., priority 2022, published 2026)", "target": "TPK enzyme (Homo sapiens, UniProt Q9H3S4)", "sequence (Q9H3S4 whole entry)": "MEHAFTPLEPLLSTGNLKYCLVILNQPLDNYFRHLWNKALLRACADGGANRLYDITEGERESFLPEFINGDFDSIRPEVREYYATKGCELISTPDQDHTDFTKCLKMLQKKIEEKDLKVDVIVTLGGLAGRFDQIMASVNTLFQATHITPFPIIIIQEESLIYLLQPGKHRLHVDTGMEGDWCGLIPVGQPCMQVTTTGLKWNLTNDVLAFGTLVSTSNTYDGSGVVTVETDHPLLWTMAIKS", "assay": "TPK enzyme activity test (TDP formation from thiamine and ATP, HPLC detection)", "assay_type": "biochemical", "conditions": "promoting effect on TPK enzyme activity"}
{"compound": "O=C1CCc2ccc(OCCCN3CCN(c4cccc(Cl)c4Cl)CC3)cc2N1", "note": "[Compound 5]", "values": [{"measurement": "EC50", "value": 1200, "unit": "nM"}, {"measurement": "Emax", "setting": "calculated with the effect of DMSO on TPK enzyme activity as 100%, read-out: Emax", "value": 184, "unit": "%"}]}
